Where a name gives a salt, the structure may show the parent alone.
Biological target: PI3Kδ (p110δ/p85α) (Homo sapiens (Human), UniProt O00329)
Assay: Example A3: PI3Kδ scintillation proximity assay
Assay type: biochemical
Details: for IC50: scintillation proximity assay, 20 μM ATP, 4 nM PI3Kδ, read-out: PI3Kδ SPA IC50
Summary of the method: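 p110δ/p85α (4 nM) phosphorylated 20 μM PIP2 with 20 μM ATP plus [γ-33P]ATP in MOPS pH 6.7, MgCl2, DTT, CHAPS, 0.5% DMSO, at RT. Stopped with EDTA/excess ATP, product captured on WGA SPA beads overnight and counted; IC50 from percent control activity versus log inhibitor.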

Sequence of PI3Kδ (p110δ/p85α) (O00329 whole entry): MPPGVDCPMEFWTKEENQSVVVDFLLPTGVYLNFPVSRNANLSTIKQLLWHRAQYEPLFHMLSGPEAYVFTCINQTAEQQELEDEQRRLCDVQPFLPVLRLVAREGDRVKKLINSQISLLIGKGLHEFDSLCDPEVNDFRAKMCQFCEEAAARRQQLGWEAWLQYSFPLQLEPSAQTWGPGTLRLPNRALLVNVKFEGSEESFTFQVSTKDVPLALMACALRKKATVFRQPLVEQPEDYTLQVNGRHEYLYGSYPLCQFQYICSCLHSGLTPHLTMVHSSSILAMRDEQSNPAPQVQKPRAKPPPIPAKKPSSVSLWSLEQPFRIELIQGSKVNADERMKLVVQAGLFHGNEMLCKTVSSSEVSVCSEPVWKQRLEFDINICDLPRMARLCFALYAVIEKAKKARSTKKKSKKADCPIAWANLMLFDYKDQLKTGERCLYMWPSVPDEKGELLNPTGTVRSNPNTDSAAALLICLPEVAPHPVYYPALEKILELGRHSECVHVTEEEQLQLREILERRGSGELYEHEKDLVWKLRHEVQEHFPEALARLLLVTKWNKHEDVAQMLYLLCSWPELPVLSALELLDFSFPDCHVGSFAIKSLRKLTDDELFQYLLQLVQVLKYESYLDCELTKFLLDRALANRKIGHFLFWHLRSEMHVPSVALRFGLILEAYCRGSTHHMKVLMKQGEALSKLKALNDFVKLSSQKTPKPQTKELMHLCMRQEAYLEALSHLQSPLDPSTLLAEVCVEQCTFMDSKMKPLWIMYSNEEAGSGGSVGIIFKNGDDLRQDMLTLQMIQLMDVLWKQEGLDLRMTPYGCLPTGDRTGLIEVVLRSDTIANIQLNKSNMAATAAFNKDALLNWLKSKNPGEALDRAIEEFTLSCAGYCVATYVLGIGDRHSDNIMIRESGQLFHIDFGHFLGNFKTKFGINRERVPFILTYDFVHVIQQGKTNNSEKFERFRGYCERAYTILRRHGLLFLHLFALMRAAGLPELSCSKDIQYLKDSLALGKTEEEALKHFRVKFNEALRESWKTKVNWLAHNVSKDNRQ
Sequence of PI3Kδ (p110δ/p85α) (P27986 whole entry partner): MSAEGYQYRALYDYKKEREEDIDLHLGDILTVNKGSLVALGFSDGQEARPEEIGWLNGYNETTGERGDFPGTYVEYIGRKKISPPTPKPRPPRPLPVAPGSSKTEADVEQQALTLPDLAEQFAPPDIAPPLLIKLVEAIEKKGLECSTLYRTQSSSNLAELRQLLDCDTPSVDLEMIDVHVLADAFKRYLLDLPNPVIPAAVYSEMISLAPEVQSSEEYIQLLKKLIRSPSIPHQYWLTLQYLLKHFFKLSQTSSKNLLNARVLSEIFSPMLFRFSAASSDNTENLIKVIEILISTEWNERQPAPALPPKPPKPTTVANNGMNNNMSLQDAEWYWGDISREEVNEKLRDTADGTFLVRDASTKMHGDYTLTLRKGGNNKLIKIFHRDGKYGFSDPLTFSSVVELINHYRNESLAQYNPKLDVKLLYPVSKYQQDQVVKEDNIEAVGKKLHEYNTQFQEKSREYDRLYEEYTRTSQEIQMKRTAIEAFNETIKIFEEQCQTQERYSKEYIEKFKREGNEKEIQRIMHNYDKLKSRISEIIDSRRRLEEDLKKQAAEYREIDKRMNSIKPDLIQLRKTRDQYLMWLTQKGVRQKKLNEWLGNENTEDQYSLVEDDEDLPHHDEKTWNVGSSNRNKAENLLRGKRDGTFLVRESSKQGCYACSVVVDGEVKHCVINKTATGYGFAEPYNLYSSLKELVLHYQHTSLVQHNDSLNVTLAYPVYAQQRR

IC50 [nM] | relative activity among the four separated diastereomers (peaks 1-4) (assay not specified) | SMILES
< 10 |  | COc1c(C(C)n2nc(C)c3c(N)ncnc32)cc(Cl)c(C)c1-c1ccc(C(=O)NCCO)nc1 (centres unmarked) [Example 23, 5-(3-(1-(4-amino-3-methyl-1H-pyrazolo[3,4-d]pyrimidin-1-yl)ethyl)-5-chloro-2-methoxy-6-methylphenyl)-N-(2-hydroxyethyl)picolinamide trifluoroacetate]
 | most active enantiomer | CCOc1c(C(C)n2nc(C)c3c(N)ncnc32)cc(Cl)c(F)c1C1CNC(=O)O1 (centres unmarked) [Example 357, 5-{3-[1-(4-amino-3-methyl-1H-pyrazolo[3,4-d]pyrimidin-1-yl)ethyl]-5-chloro-2-ethoxy-6-fluorophenyl}-1,3-oxazolidin-2-one]
< 10 |  | COc1c(C(C)n2nc(C)c3c(N)ncnc32)cc(Cl)c(C#N)c1C1CN(C(=O)N(C)C)C1 (single isomer, unassigned) [Example 296, 3-{3-[1-(4-Amino-3-methyl-1H-pyrazolo[3,4-d]pyrimidin-1-yl)ethyl]-5-chloro-6-cyano-2-methoxyphenyl}-N,N-dimethylazetidine-1-carboxamide]
< 10 |  | CCNC(=O)c1c(C)c(Cl)cc(C(C)n2nc(C)c3c(N)ncnc32)c1-c1cc(F)cc(F)c1 (racemic) [Example 37, 6-[1-(4-amino-3-methyl-1H-pyrazolo[3,4-d]pyrimidin-1-yl)ethyl]-4-chloro-N-ethyl-3′,5′-difluoro-3-methylbiphenyl-2-carboxamide]
< 10 |  | CCOc1c(C(C)n2nc(C)c3c(N)ncnc32)cc(Cl)c(C#N)c1-c1cncc(S(C)(=O)=O)c1 (racemic) [Example 43, 4-[1-(4-amino-3-methyl-1H-pyrazolo[3,4-d]pyrimidin-1-yl)ethyl]-6-chloro-3-ethoxy-2-[5-(methylsulfonyl)pyridin-3-yl]benzonitrile]
< 10 |  | CCOc1c(C(C)n2nc(-c3ccc(C(=O)NC)nc3)c3c(N)ncnc32)cc(Cl)c(C)c1-c1ccc(C(=O)N(C)C)nc1 (racemic) [Example 59, 5-{3-[1-(4-amino-3-{6-[(methylamino)carbonyl]pyridin-3-yl}-1H-pyrazolo[3,4-d]pyrimidin-1-yl)ethyl]-5-chloro-2-ethoxy-6-methylphenyl}-N,N-dimethylpyridine-2-carboxamide tris(trifluoroacetate)]
< 10 |  | COc1c(C(C)n2nc(C)c3c(N)ncnc32)cc(Cl)c(C)c1-c1cnn(C(C)C(=O)N(C)C)c1 (centres unmarked) [Example 207, 2-(4-(3-(1-(4-amino-3-methyl-1H-pyrazolo[3,4-d]pyrimidin-1-yl)ethyl)-5-chloro-2-methoxy-6-methylphenyl)-1H-pyrazol-1-yl)-N,N-dimethylpropanamide]
< 10 |  | CCN1CC(c2c(C)c(Cl)cc(C(C)n3nc(C)c4c(N)ncnc43)c2OC)C1 (racemic) [Example 6, 1-{1-[5-Chloro-3-(1-ethylazetidin-3-yl)-2-methoxy-4-methylphenyl]ethyl}-3-methyl-1H-pyrazolo[3,4-d]pyrimidin-4-amine]
< 10 |  | CCNC(=O)c1c(C)c(Cl)cc(C(C)n2nc(-c3cn[nH]c3)c3c(N)ncnc32)c1OCC (racemic) [Example 87, 3-{1-[4-Amino-3-(1H-pyrazol-4-yl)-1H-pyrazolo[3,4-d]pyrimidin-1-yl]ethyl}-5-chloro-2-ethoxy-N-ethyl-6-methylbenzamide]
< 10 |  | CNC(=O)[C@@H](C)N1CC(c2c(C)c(C#N)cc(C(C)n3nc(C(F)F)c4c(N)ncnc43)c2OC)C1 (stereo partly drawn) [Example 135, (2R)-2-[3-(3-{1-[4-Amino-3-(difluoromethyl)-1H-pyrazolo[3,4-d]pyrimidin-1-yl]ethyl}-5-cyano-2-methoxy-6-methylphenyl)azetidin-1-yl]-N-methylpropanamide]
< 10 |  | COc1c(C(C)n2nc(C)c3c(N)ncnc32)cc(Cl)c(C#N)c1C1CN(C2CCOC2)C1 (single isomer, unassigned) [Example 276, 4-[1-(4-Amino-3-methyl-1H-pyrazolo[3,4-d]pyrimidin-1-yl)ethyl]-6-chloro-3-methoxy-2-[1-(tetrahydrofuran-3-yl)azetidin-3-yl]benzonitrile]
< 10 |  | COc1c(C(C)n2nc(C)c3c(N)ncnc32)cc(Cl)c(C#N)c1C1CN(C(C)=O)C1 (single isomer, unassigned) [Example 281, 2-(1-Acetylazetidin-3-yl)-4-[1-(4-amino-3-methyl-1H-pyrazolo[3,4-d]pyrimidin-1-yl)ethyl]-6-chloro-3-methoxybenzonitrile]
< 10 |  | COc1c(C(C)n2nc(C)c3c(N)ncnc32)cc(Cl)c(C#N)c1C1CN(CC2CCOC2)C1 (single isomer, unassigned) [Example 279, 4-[1-(4-Amino-3-methyl-1H-pyrazolo[3,4-d]pyrimidin-1-yl)ethyl]-6-chloro-3-methoxy-2-[1-(tetrahydrofuran-3-ylmethyl)azetidin-3-yl]benzonitrile]
< 10 |  | CNC(=O)CCc1c(C)c(Cl)cc(C(C)n2nc(C)c3c(N)ncnc32)c1OC (single isomer, unassigned) [Example 179, 3-(3-(1-(4-Amino-3-methyl-1H-pyrazolo[3,4-d]pyrimidin-1-yl)ethyl)-5-chloro-2-methoxy-6-methylphenyl)-N-methylpropanamide 2,2,2-trifluoroacetate]
< 10 |  | CCOc1c(C(C)n2nc(C(F)F)c3c(N)ncnc32)cc(Cl)c(C)c1-c1ccc(C(=O)N(C)C)nc1 (racemic) [Example 82, 5-(3-{1-[4-Amino-3-(difluoromethyl)-1H-pyrazolo[3,4-d]pyrimidin-1-yl]ethyl}-5-chloro-2-ethoxy-6-methylphenyl)-N,N-dimethylpyridine-2-carboxamide bis(trifluoroacetate)]
< 10 |  | COCCN1CC(c2c(C)c(Cl)cc(C(C)n3nc(C)c4c(N)ncnc43)c2OC)C1 (racemic) [Example 9, 1-(1-{5-Chloro-2-methoxy-3-[1-(2-methoxyethyl)azetidin-3-yl]-4-methylphenyl}ethyl)-3-methyl-1H-pyrazolo[3,4-d]pyrimidin-4-amine]
< 10 |  | CCOc1c(C(C)n2cc(C)c3c(N)ncnc32)cc(Cl)c(C#N)c1C1CN(CCO)C1 (centres unmarked) [Example 308, 4-[1-(4-Amino-5-methyl-7H-pyrrolo[2,3-d]pyrimidin-7-yl)ethyl]-6-chloro-3-ethoxy-2-[1-(2-hydroxyethyl)azetidin-3-yl]benzonitrile]
< 10 |  | CCOc1c(C(C)n2nc(C)c3c(N)ncnc32)cc(Cl)c(C#N)c1C1CN(C2CCOCC2)C1 (single isomer, unassigned) [Example 229, 4-[1-(4-Amino-3-methyl-1H-pyrazolo[3,4-d]pyrimidin-1-yl)ethyl]-6-chloro-3-ethoxy-2-[1-(tetrahydro-2H-pyran-4-yl)azetidin-3-yl]benzonitrile]
< 10 |  | CCOc1c(C(C)n2nc(C)c3c(N)ncnc32)cc(Cl)c(F)c1C1CN(C[C@H](C)O)C1 (stereo partly drawn) [Example 143, (2S)-1-(3-{3-[1-(4-Amino-3-methyl-1H-pyrazolo[3,4-d]pyrimidin-1-yl)ethyl]-5-chloro-2-ethoxy-6-fluorophenyl}azetidin-1-yl)propan-2-ol]
< 10 |  | COc1c(C(C)n2nc(C)c3c(N)ncnc32)cc(Cl)c(C)c1C1CN(CC(C)C#N)C1 (centres unmarked) [Example 162, 3-(3-{3-[1-(4-Amino-3-methyl-1H-pyrazolo[3,4-d]pyrimidin-1-yl)ethyl]-5-chloro-2-methoxy-6-methylphenyl}azetidin-1-yl)-2-methylpropanenitrile]
< 10 |  | CCNC(=O)c1c(C)c(Cl)cc(C(C)n2nc(-c3ccc4cn[nH]c4c3)c3c(N)ncnc32)c1OCC (racemic) [Example 92, 3-{1-[4-Amino-3-(1H-indazol-6-yl)-1H-pyrazolo[3,4-d]pyrimidin-1-yl]ethyl}-5-chloro-2-ethoxy-N-ethyl-6-methylbenzamide]
< 10 |  | COc1c(C(C)n2nc(C)c3c(N)ncnc32)cc(Cl)c(C)c1C1CN(C[C@@H](O)C(F)(F)F)C1 (single isomer, unassigned) [Example 115]
< 10 |  | CNC(=O)[C@@H](C)N1CC(c2c(C)c(Cl)cc(C(C)n3nc(C)c4c(N)ncnc43)c2OC)C1 (stereo partly drawn) [Example 110, (2R)-2-(3-{3-[1-(4-Amino-3-methyl-1H-pyrazolo[3,4-d]pyrimidin-1-yl)ethyl]-5-chloro-2-methoxy-6-methylphenyl}azetidin-1-yl)-N-methylpropanamide trifluoroacetate]
< 10 |  | CNC(=O)[C@H](C)N1CC(c2c(C)c(C#N)cc(C(C)n3nc(C(F)F)c4c(N)ncnc43)c2OC)C1 (stereo partly drawn) [Example 134, (2S)-2-[3-(3-{1-[4-Amino-3-(difluoromethyl)-1H-pyrazolo[3,4-d]pyrimidin-1-yl]ethyl}-5-cyano-2-methoxy-6-methylphenyl)azetidin-1-yl]-N-methylpropanamide]
< 10 |  | COc1c(C(C)n2nc(C(F)F)c3c(N)ncnc32)cc(C#N)c(C)c1C1CN(C(C)=O)C1 (racemic) [Example 138, 3-(1-Acetylazetidin-3-yl)-5-{1-[4-amino-3-(difluoromethyl)-1H-pyrazolo[3,4-d]pyrimidin-1-yl]ethyl}-4-methoxy-2-methylbenzonitrile]

SMILES | IC50 [nM] | relative activity among the four separated diastereomers (peaks 1-4) (assay not specified)
CCOc1c(C(C)n2nc(C)c3c(N)ncnc32)cc(Cl)c(C)c1-c1ccnc(C(=O)N(C)C)c1 (single isomer, unassigned) [Example 201] | < 10 | 
